In article PMC4911231 (Journal of acquired immune deficiency syndromes (1999), 2016):
Several values for one entry are separate records, joined by “and”; a condition that tells them apart may be missing. Equal entries are not always repeated. Where two headings read alike, the source gives them in different places. Marks after values point to notes of the source that are not given here.

Legend:
[1] = test system: cytochrome P450 3A4 (CYP 3A4); details: cited from earlier work
[2] = cited from earlier work
[3] = cited from earlier work; remark: listed apart in the source
[4] = for AUC24 geometric mean (90% CI) ratio: within-subject; for Tmax: mode (range); for Vd/F: Vd/F (apparent volume of distribution); for AUC: one subject on concomitant darunavir/ritonavir
[5] = clinical; details: female, human, in vivo
[6] = Maternal safety, pregnancy and infant outcomes; type: in vivo, human
[7] = cited from earlier work; remark: listed apart in the source
[8] = Stability in stored plasma; type: physicochemical; details: plasma stored at −70°C
[9] = test system: HIV-1; details: cited from earlier work
[10] = test system: HIV-1; test: Maternal plasma HIV-1 RNA; type: in vivo, human; details: rilpivirine with combination antiretrovirals
[11] = cited from earlier work; remark: listed apart in the source
[12] = 25 mg once daily, postpartum, median (range)
[13] = 25 mg once daily, second trimester, median (range)
[14] = 25 mg once daily, third trimester, median (range)
[15] = Second Trimester/Postpartum, n = 15
[16] = Second Trimester/Third Trimester, n = 15
[17] = Third Trimester/Postpartum, n = 28
[18] = female, human, plasma, oral, 25 mg, 25 mg once daily, second trimester, median (range)

## Cc1cc(/C=C/C#N)cc(C)c1Nc1ccnc(Nc2ccc(C#N)cc2)n1 [Rilpivirine]
[1]
  Substrate of cytochrome P450 3A4: substrate
[2]
  Bound to protein: 99.7%
[3]; one person
  Cord blood to maternal plasma ratio: 0.74
[3]; two women, one value each
  Reduction in exposure during pregnancy compared to postpartum: 30% and 43%
[4]; [12]
  C0 (pre-dose concentration): 69 (<10 – 285) ng/mL
  C24 (24 hour post-dose concentration): 81 (<10 – 299) ng/mL
  Cmin (minimum observed concentration): 58 (<10 – 200) ng/mL
[4]; [13]
  C0 (pre-dose concentration): 98(31 – 216) ^‡ ng/mL
  C24 (24 hour post-dose concentration): 63(37 – 225) ^* ng/mL
  Cmin (minimum observed concentration): 65(29 – 178) ng/mL
[4]; [14]
  C0 (pre-dose concentration): 56(<10 – 210) ng/mL
  C24 (24 hour post-dose concentration): 56(<10 – 181) ^† ng/mL
  Cmin (minimum observed concentration): 51(<10 – 136) ng/mL
[4]; 2nd trimester
  Coefficient of variation (CV) for Cmax: 53%
  Coefficient of variation (CV) for Cmin: 55%
[4]; 2nd trimester, between-subject
  Coefficient of variation (CV) for AUC: 186%
[4]; 3rd trimester
  Coefficient of variation (CV) for AUC: 194%
  Coefficient of variation (CV) for Cmax: 212%
  Coefficient of variation (CV) for Cmin: 154%
[4]; 14 visits with detectable HIV-1 RNA
  Minimum plasma concentration (Cmin), median (range): 30 (<10 – 93) ng/mL and 30 ng/mL
[4]; 62 visits with undetectable HIV-1 RNA
  Minimum plasma concentration (Cmin), median (range): 63 (15 – 199) ng/mL and 63 ng/mL
[4]; [15]
  C0 geometric mean (90% CI) ratio: 0.91 (0.61 – 1.38)
  C24 geometric mean (90% CI) ratio: 0.70 (0.55 – 0.90)
  CL/F geometric mean (90% CI) ratio: 1.33 (1.04 – 1.70)
  Cmax geometric mean (90% CI) ratio: 0.84 (0.69 – 1.02)
  Cmin geometric mean (90% CI) ratio: 0.88 (0.63 – 1.21)
  Vd/F geometric mean (90% CI) ratio: 1.50 (0.58 – 3.93)
  AUC24 geometric mean (90% CI) ratio: 0.77 (0.61 – 0.96)
[4]; [16]
  C0 geometric mean (90% CI) ratio: 1.30 (1.06 – 1.60)
  C24 geometric mean (90% CI) ratio: 1.09 (0.95 – 1.26)
  CL/F geometric mean (90% CI) ratio: 0.92 (0.81 – 1.05)
  Cmax geometric mean (90% CI) ratio: 1.13 (0.96 – 1.34)
  Cmin geometric mean (90% CI) ratio: 1.22(1.02 – 1.45)
  Vd/F geometric mean (90% CI) ratio: 0.36(0.22 – 0.58)
  AUC24 geometric mean (90% CI) ratio: 1.09 (0.96 – 1.23)
[4]; [17]
  C0 geometric mean (90% CI) ratio: 0.94 (0.59 – 1.50)
  C24 geometric mean (90% CI) ratio: 0.84 (0.57 – 1.23)
  CL/F geometric mean (90% CI) ratio: 1.26 (0.97 – 1.64)
  Cmax geometric mean (90% CI) ratio: 0.83 (0.68 – 1.01)
  Cmin geometric mean (90% CI) ratio: 1.11 (0.70 – 1.74)
  Vd/F geometric mean (90% CI) ratio: 1.42 (0.68 – 2.97)
  AUC24 geometric mean (90% CI) ratio: 0.80 (0.62 – 1.03)
[4]; female, human, plasma, oral, 25 mg, C24 (24 hour post-dose concentration), 25 mg once daily, second trimester, median (range)
  concentration at 24 h: 63 ng/mL
[4]; female, human, plasma, oral, 25 mg, 25 mg once daily, postpartum, median (range)
  Cmax: 134 ng/mL
[4]; [18]
  Cmax: 145 ng/mL
  Vd/F: 750 L
[4]; female, human, plasma, oral, 25 mg, 25 mg once daily, postpartum
  Tmax: 4 h
[4]; female, human, plasma, oral, 25 mg, 25 mg once daily, third trimester
  Tmax: 2 h
[4]; female, human, plasma, oral, 25 mg, 25 mg once daily, third trimester, median (range)
  Vd/F: 1210 L
[4]; human, plasma, oral, 25 mg, second trimester
  AUC: 12400 ng·h/mL
[4]; human, plasma, oral, 25 mg, third trimester
  AUC: 3600 ng·h/mL
[4]; postpartum
  Coefficient of variation (CV) for AUC: 60%
  Coefficient of variation (CV) for Cmax: 58%
  Coefficient of variation (CV) for Cmin: 71%
[4]; postpartum, 3 of 28
  Women below the AUC0–24 10th percentile target (880 ng*hr/mL): 11%
[4]; postpartum, 11 of 28
  Women with absorption lag (1 hour post-dose concentration less than pre-dose): 39%
[4]; second trimester
  C24 lower vs. postpartum: 30%
  Reduction of AUC compared to postpartum: 23%
[4]; second trimester, 1 of 15
  Women below the AUC0–24 10th percentile target (880 ng*hr/mL): 7%
[4]; second trimester, 9 of 18
  Women with absorption lag (1 hour post-dose concentration less than pre-dose): 50%
[4]; third trimester
  C24 lower vs. postpartum: 16%
  Reduction of drug exposure (AUC) compared to postpartum: 20%
[4]; third trimester, 2 of 28
  Women below the AUC0–24 10th percentile target (880 ng*hr/mL): 7%
[4]; third trimester, 13 of 30
  Women with absorption lag (1 hour post-dose concentration less than pre-dose): 43%
[5]
  Kp: 0.55
  Maternal plasma rilpivirine concentration at delivery, median (range): 103.3 (<10 to 273.4) ng/mL
  Umbilical cord blood rilpivirine concentration at delivery, median (range): 53.78 (<10 to 219.7) ng/mL
[6]; at 32, 35, and 36 weeks, N of 30
  Number of preterm deliveries: 3 (10%)
[6]; in vivo
  Gestational age at delivery, median (range): 38.9 (32.3 – 41.4) weeks
  Infant Birth weight, median (range): 3095 (1570 – 4570) g
[6]; pregnant and postpartum women, 25 mg once daily
  Tolerability: well tolerated
[7]; human, in vivo
  Coefficient of variation (CV) for AUC: 38%
[7]; non-pregnant adults
  10th percentile rilpivirine AUC: 880 ng·h/mL
[8]
  Stability in plasma: 2 years
[9]
  median EC50: 0.27 ng/mL
  median EC90: 0.66 ng/mL
  protein binding-adjusted EC50: 5.0 ng/mL
[10]
  HIV-1 RNA at 2nd trimester, median (range): < 40 (<20 – 2770) copies/mL
  HIV-1 RNA at 3rd trimester, median (range): < 20 (<20 – 48700) copies/mL
  HIV-1 RNA at Delivery, median (range): < 20 (<16 – 48700) copies/mL

## COC(=O)N[C@H](C(=O)N[C@@H](Cc1ccccc1)[C@@H](O)CN(Cc1ccc(-c2ccccn2)cc1)NC(=O)[C@@H](NC(=O)OC)C(C)(C)C)C(C)(C)C [atazanavir]
[11]; HIV protease inhibitors
  AUC during pregnancy compared to postpartum: significant decreases

## CC(C)CN(C[C@@H](O)[C@H](Cc1ccccc1)NC(=O)O[C@H]1CO[C@H]2OCC[C@H]21)S(=O)(=O)c1ccc(N)cc1 [darunavir]
[11]; HIV protease inhibitors
  AUC during pregnancy compared to postpartum: significant decreases

## O=C1Nc2ccc(Cl)cc2[C@@](C#CC2CC2)(C(F)(F)F)O1 [efavirenz]
[11]
  Clearance during pregnancy: increased

## Cc1cc(C#N)cc(C)c1Oc1nc(Nc2ccc(C#N)cc2)nc(N)c1Br [etravirine]
[11]
  Exposure during pregnancy compared to postpartum: increased

## CC(C)CN(C[C@@H](OP(=O)(O)O)[C@H](Cc1ccccc1)NC(=O)O[C@H]1CCOC1)S(=O)(=O)c1ccc(N)cc1 [fosamprenavir]
[11]; in vivo
  AUC during pregnancy compared to postpartum: significant decreases

## CC(C)(C)NC(=O)[C@@H]1CN(Cc2cccnc2)CCN1C[C@@H](O)C[C@@H](Cc1ccccc1)C(=O)N[C@H]1c2ccccc2C[C@H]1O [indinavir]
[11]; in vivo
  AUC during pregnancy compared to postpartum: significant decreases

## Cc1cccc(C)c1OCC(=O)N[C@@H](Cc1ccccc1)[C@@H](O)C[C@H](Cc1ccccc1)NC(=O)[C@H](C(C)C)N1CCCNC1=O [lopinavir]
[11]; in vivo
  AUC during pregnancy compared to postpartum: significant decreases

## Cc1c(O)cccc1C(=O)N[C@@H](CSc1ccccc1)[C@H](O)CN1C[C@H]2CCCC[C@H]2C[C@H]1C(=O)NC(C)(C)C [nelfinavir]
[11]; HIV protease inhibitors
  AUC during pregnancy compared to postpartum: significant decreases

## Cc1ccnc2c1NC(=O)c1cccnc1N2C1CC1 [nevirapine]
[11]; in vivo
  AUC reduced during third trimester compared to postpartum: 20%
  Cmax reduced during third trimester compared to postpartum: 20%
  Cmin reduced during third trimester compared to postpartum: 20%

## CC(C)(C)NC(=O)[C@@H]1C[C@@H]2CCCC[C@@H]2CN1C[C@@H](O)[C@H](Cc1ccccc1)NC(=O)[C@H](CC(N)=O)NC(=O)c1ccc2ccccc2n1 [saquinavir]
[11]; in vivo
  AUC during pregnancy compared to postpartum: significant decreases
